The values below come from publication PMC2248166, “Quantitative peptide binding motifs for 19 human and mouse MHC class I molecules derived using positional scanning combinatorial peptide libraries” (Immunome Research, 2008).

Where a SMILES comes first, the peptide text is derived from it.

The target of the assay is HLA A*3201 (Homo sapiens, UniProt P04439, A270S/D101S/D185E/E176V/E277Q/F133L/G103R/G107R/G231S/H175R/I121M/I218V/I322F/K168Q/L105A/L300P/L318F/M331R/P208A/P217A/Q94H/R106L/R138Q/S129P/T104I/T323A/T345S/V100E/V321M/V358M). As to the kind of experiment: biochemical. It is filed as binding.

On to `CC[C@H](C)[C@H](NC(=O)[C@H](CC(C)C)NC(=O)[C@H](Cc1c[nH]cn1)NC(=O)[C@H](Cc1ccccc1)NC(=O)[C@H](CC(N)=O)NC(=O)[C@H](Cc1ccccc1)NC(=O)[C@@H](NC(=O)[C@@H](NC(=O)[C@@H](N)CCCNC(=N)N)[C@@H](C)O)[C@@H](C)CC)C(=O)O` [3102.0342] (H-RTIFNFHLI-OH), for which half-maximal inhibition (IC50) required 2.1 nM.
For `CC[C@H](C)[C@H](N)C(=O)N[C@H](C(=O)N[C@H](C(=O)N[C@@H](Cc1ccc(O)cc1)C(=O)N[C@@H](Cc1ccccc1)C(=O)N[C@@H](CCCNC(=N)N)C(=O)N[C@@H](CCCNC(=N)N)C(=O)N[C@H](C(=O)N[C@H](C(=O)O)[C@@H](C)CC)[C@@H](C)O)C(C)C)[C@@H](C)O` [3102.0382] (H-ITVYFRRTI-OH), half-maximal inhibition (IC50) was put at 26 nM.
The same measure for `CC[C@H](C)[C@H](NC(=O)[C@@H](NC(=O)[C@H](CC(C)C)NC(=O)[C@H](C)NC(=O)[C@@H](NC(=O)[C@@H](NC(=O)[C@@H](NC(=O)[C@@H](NC(=O)[C@@H](N)Cc1c[nH]cn1)[C@@H](C)CC)[C@@H](C)CC)[C@@H](C)CC)C(C)C)[C@@H](C)O)C(=O)O` [3102.0368] (H-HIIIVALTI-OH): 79 nM; for `CC[C@H](C)[C@H](NC(=O)[C@H](CO)NC(=O)[C@@H](NC(=O)[C@@H](NC(=O)[C@H](Cc1c[nH]c2ccccc12)NC(=O)[C@H](CCCCN)NC(=O)[C@H](CCSC)NC(=O)[C@H](CCSC)NC(=O)[C@@H](N)CCSC)[C@@H](C)CC)[C@@H](C)CC)C(=O)O` [3102.0357] (H-MMMKWIISI-OH): 0.17 nM; for `CC[C@H](C)[C@H](NC(=O)[C@H](CCCCN)NC(=O)CNC(=O)[C@H](CC(N)=O)NC(=O)[C@@H](NC(=O)[C@@H](N)CCSC)[C@@H](C)O)C(=O)N[C@@H](CC(N)=O)C(=O)N[C@@H](CO)C(=O)N[C@@H](CC(C)C)C(=O)O` [3102.0386] (H-MTNGKINSL-OH): 22 nM.
The same measure for `CC[C@H](C)[C@H](NC(=O)[C@H](CC(C)C)NC(=O)[C@H](CC(C)C)NC(=O)[C@H](CC(C)C)NC(=O)[C@H](CC(C)C)NC(=O)[C@H](CC(N)=O)NC(=O)CNC(=O)[C@H](CC(C)C)NC(=O)[C@@H](N)CCCCN)C(=O)O` [3102.0406] (H-KLGNLLLLI-OH): 0.72 nM; for `CC[C@H](C)[C@H](NC(=O)[C@@H](N)CCCCN)C(=O)N[C@@H](CC(=O)O)C(=O)N[C@@H](CC(N)=O)C(=O)N[C@@H](Cc1ccc(O)cc1)C(=O)N[C@H](C(=O)N[C@H](C(=O)N[C@@H](CCCCN)C(=O)N[C@@H](Cc1ccccc1)C(=O)O)C(C)C)C(C)C` [3102.0414] (H-KIDNYVVKF-OH): 19 nM.
The same measure for `CC(C)C[C@H](NC(=O)[C@H](CO)NC(=O)[C@H](CC(N)=O)NC(=O)[C@H](CCCNC(=N)N)NC(=O)[C@H](CC(C)C)NC(=O)CNC(=O)[C@H](Cc1ccc(O)cc1)NC(=O)[C@@H](NC(=O)[C@@H](N)CCCNC(=N)N)[C@@H](C)O)C(=O)O` [3102.0438] (H-RTYGLRNSL-OH): 0.63 nM; for `CC[C@H](C)[C@H](NC(=O)[C@H](CO)NC(=O)[C@@H](NC(=O)[C@H](C)NC(=O)[C@@H](NC(=O)[C@H](CC(C)C)NC(=O)[C@H](CC(C)C)NC(=O)[C@@H](NC(=O)[C@@H](N)CCCCN)[C@@H](C)CC)C(C)C)C(C)C)C(=O)O` [3102.0330] (H-KILLVAVSI-OH): 1.5 nM.
As for `CC[C@H](C)[C@H](NC(=O)[C@@H](NC(=O)[C@H](CC(C)C)NC(=O)[C@H](CO)NC(=O)[C@H](CCC(N)=O)NC(=O)[C@H](Cc1ccccc1)NC(=O)[C@H](CC(=O)O)NC(=O)[C@H](CCC(N)=O)NC(=O)[C@H](C)N)[C@@H](C)O)C(=O)O` [3102.0299] (H-AQDFQSLTI-OH), inhibition was half-maximal at 68 nM (IC50).
The same measure for `CC[C@H](C)[C@H](NC(=O)[C@H](CO)NC(=O)[C@H](CC(C)C)NC(=O)[C@@H](NC(=O)[C@H](Cc1ccccc1)NC(=O)[C@H](CC(N)=O)NC(=O)[C@H](CCC(=O)O)NC(=O)[C@@H](NC(=O)[C@@H](N)CCCNC(=N)N)[C@@H](C)O)C(C)C)C(=O)O` [3102.0421] (H-RTENFVLSI-OH): 1.6 nM.
In turn, `CC[C@H](C)[C@H](NC(=O)[C@H](CC(C)C)NC(=O)[C@@H](N)CCCNC(=N)N)C(=O)N[C@@H](CC(N)=O)C(=O)N[C@@H](CC(N)=O)C(=O)N[C@@H](CCCNC(=N)N)C(=O)N[C@H](C(=O)N[C@@H](CC(C)C)C(=O)N[C@@H](Cc1ccccc1)C(=O)O)C(C)C` [3102.0428] (H-RLINNRVLF-OH) came in with an IC50 of 5.7 nM. Compared with the last molecule, the IC50 is about 3.6-fold higher.
In turn, `CC[C@H](C)[C@H](NC(=O)CNC(=O)[C@H](CC(C)C)NC(=O)[C@@H](NC(=O)[C@H](CC(C)C)NC(=O)[C@H](Cc1ccc(O)cc1)NC(=O)[C@H](CCSC)NC(=O)[C@@H](NC(=O)[C@@H](N)CCSC)[C@@H](C)CC)C(C)C)C(=O)O` [3102.0477] (H-MIMYLVLGI-OH) yielded an IC50 of 98 nM.
The same measure for `CC[C@H](C)[C@H](NC(=O)[C@@H](NC(=O)[C@@H](NC(=O)[C@H](Cc1ccccc1)NC(=O)[C@H](Cc1ccccc1)NC(=O)[C@@H](NC(=O)[C@H](CC(C)C)NC(=O)[C@@H](NC(=O)[C@@H](N)CO)[C@@H](C)O)[C@@H](C)CC)C(C)C)[C@@H](C)CC)C(=O)O` [3102.0317] (H-STLIFFVII-OH): 18 nM; for `CC[C@H](C)[C@H](NC(=O)[C@H](CC(C)C)NC(=O)[C@H](C)NC(=O)[C@@H](NC(=O)[C@H](C)N)[C@@H](C)O)C(=O)N[C@@H](CC(C)C)C(=O)N[C@H](C(=O)N[C@@H](CO)C(=O)N[C@@H](Cc1ccccc1)C(=O)O)C(C)C` [3102.0327] (H-ATALILVSF-OH): 1.4 nM.
Take `CC[C@H](C)[C@H](NC(=O)[C@@H](NC(=O)[C@@H](N)CCCCN)[C@@H](C)O)C(=O)N[C@@H](Cc1ccc(O)cc1)C(=O)N[C@@H](CC(C)C)C(=O)N[C@@H](CC(C)C)C(=O)N[C@@H](CO)C(=O)N[C@@H](CC(C)C)C(=O)N[C@@H](Cc1ccccc1)C(=O)O` [3102.0490] (H-KTIYLLSLF-OH): the IC50 was 10 nM.
The same measure for `CSCC[C@H](NC(=O)[C@H](CCCCN)NC(=O)[C@H](CC(N)=O)NC(=O)[C@H](CC(C)C)NC(=O)[C@@H](N)CCCCN)C(=O)N[C@H](C(=O)N[C@H](C(=O)N[C@@H](CCC(=O)O)C(=O)N[C@@H](CC(C)C)C(=O)O)C(C)C)[C@@H](C)O` [3102.0316] (H-KLNKMTVEL-OH): 1.7 nM.
The same measure for `CC[C@H](C)[C@H](N)C(=O)N[C@H](C(=O)N[C@@H](CC(N)=O)C(=O)N[C@@H](CCCCN)C(=O)N[C@@H](Cc1ccccc1)C(=O)N[C@@H](Cc1ccccc1)C(=O)N[C@@H](CCC(=O)O)C(=O)N[C@H](C(=O)N[C@H](C(=O)O)[C@@H](C)CC)C(C)C)[C@@H](C)CC` [3102.0325] (H-IINKFFEVI-OH): 11 nM; for `CC[C@H](C)[C@H](N)C(=O)N[C@H](C(=O)N[C@@H](Cc1ccc(O)cc1)C(=O)NCC(=O)N[C@@H](CCCNC(=N)N)C(=O)N[C@@H](CO)C(=O)N[C@@H](CC(N)=O)C(=O)N[C@@H](C)C(=O)N[C@H](C(=O)O)[C@@H](C)CC)C(C)C` [3102.0369] (H-IVYGRSNAI-OH): 3.2 nM; for `CC[C@H](C)[C@H](NC(=O)[C@@H]1CCCN1C(=O)[C@H](CC(C)C)NC(=O)[C@@H](NC(=O)[C@H](Cc1ccc(O)cc1)NC(=O)[C@H](Cc1ccccc1)NC(=O)[C@H](CCSC)NC(=O)[C@H](CC(C)C)NC(=O)[C@@H](N)Cc1c[nH]cn1)[C@@H](C)O)C(=O)O` [3102.0397] (H-HLMFYTLPI-OH): 0.18 nM.
The same measure for `CC[C@H](C)[C@H](N)C(=O)N[C@H](C(=O)N[C@@H](Cc1ccc(O)cc1)C(=O)N[C@@H](Cc1c[nH]c2ccccc12)C(=O)N[C@@H](CO)C(=O)N[C@@H](CCCNC(=N)N)C(=O)N[C@@H](Cc1ccccc1)C(=O)N[C@H](C(=O)N[C@H](C(=O)O)[C@@H](C)CC)[C@@H](C)O)[C@@H](C)O` [3102.0387] (H-ITYWSRFTI-OH): 2.5 nM; for `CC[C@H](C)[C@H](NC(=O)[C@H](CO)NC(=O)[C@H](CCC(N)=O)NC(=O)[C@H](CCC(N)=O)NC(=O)[C@H](CC(C)C)NC(=O)[C@H](Cc1ccccc1)NC(=O)[C@H](CC(C)C)NC(=O)[C@@H](NC(=O)[C@@H](N)CCCCN)C(C)C)C(=O)O` [3102.0312] (H-KVLFLQQSI-OH): 0.7 nM; for `CC[C@H](C)[C@H](N)C(=O)N[C@H](C(=O)N[C@@H](Cc1ccc(O)cc1)C(=O)N[C@@H](CCC(=O)O)C(=O)N[C@@H](CCCCN)C(=O)N[C@@H](CO)C(=O)N[C@@H](CC(N)=O)C(=O)N[C@@H](CC(N)=O)C(=O)N[C@H](C(=O)O)[C@@H](C)CC)[C@@H](C)O` [3102.0422] (H-ITYEKSNNI-OH): 18 nM.
In the case of `CC[C@H](C)[C@H](NC(=O)[C@H](CCCCN)NC(=O)[C@H](Cc1ccccc1)NC(=O)[C@H](CCSC)NC(=O)[C@@H](N)[C@@H](C)O)C(=O)N[C@H](C(=O)N[C@@H](Cc1ccc(O)cc1)C(=O)N[C@@H](CO)C(=O)N[C@@H](CC(C)C)C(=O)O)C(C)C` [3102.0291] (H-TMFKIVYSL-OH), half-maximal inhibition (IC50) required 0.92 nM.
`CSCC[C@H](NC(=O)[C@@H](N)C(C)C)C(=O)N[C@@H](Cc1ccc(O)cc1)C(=O)N[C@@H](C)C(=O)N[C@@H](Cc1ccccc1)C(=O)N[C@H](C(=O)N[C@H](C(=O)N1CCC[C@H]1C(=O)N[C@@H](CC(C)C)C(=O)O)[C@@H](C)O)[C@@H](C)O` [3102.0516] (H-VMYAFTTPL-OH) displayed an IC50 of 0.29 nM.
The same measure for `CC(C)C[C@H](NC(=O)[C@H](Cc1ccc(O)cc1)NC(=O)[C@H](CC(N)=O)NC(=O)[C@H](Cc1ccccc1)NC(=O)[C@H](Cc1c[nH]c2ccccc12)NC(=O)[C@H](CC(C)C)NC(=O)[C@H](CC(C)C)NC(=O)[C@@H](N)CC(C)C)C(=O)N[C@@H](Cc1ccccc1)C(=O)O` [3102.0301] (H-LLLWFNYLF-OH): 1.5 nM; for `CC(C)C[C@H](NC(=O)[C@H](Cc1ccccc1)NC(=O)[C@H](CO)NC(=O)[C@H](CC(C)C)NC(=O)[C@@H](N)CCCCN)C(=O)N[C@@H](CO)C(=O)N[C@@H](CCCNC(=N)N)C(=O)N[C@H](C(=O)N[C@@H](Cc1ccccc1)C(=O)O)C(C)C` [3102.0332] (H-KLSFLSRVF-OH): 2.2 nM.

As usually defined, the IC50 is the concentration needed to halve the response being measured. Read a low IC50 as greater potency in that assay.
